One may read the mortality as the percentage killed.

Type in all cases: in vivo
The subject of assay [1] is Southern armyworm (Spodoptera eridania), 2nd instar larvae. The assay can be described thus: Example B.7: Action on southern armyworm (Spodoptera eridania), 2nd instar larvae on sprayed lima bean plants. The settings on record: 96 h, 4 days after treatment, read-out: mortality in comparison with untreated controls. The procedure:
The active compounds were formulated by a Tecan liquid handler in 100% cyclohexanone as a 10,000-ppm solution supplied in tubes. The 10,000-ppm solution was serially diluted in 100% cyclohexanone to make interim solutions. These served as stock solutions for which final dilutions were made by the Tecan in 50% acetone:50% water (v/v) into 10 or 20 ml glass vials. A nonionic surfactant (Kinetic®) was included in the solution at a volume of 0.01% (v/v). The vials were then inserted into an automated electrostatic sprayer equipped with an atomizing nozzle for application to plants/insects.
Lima bean plants (variety Sieva) were grown 2 plants to a pot and selected for treatment at the 1st true leaf stage. Test solutions were sprayed onto the foliage by an automated electrostatic plant sprayer equipped with an atomizing spray nozzle. The plants were dried in the sprayer fume hood and then removed from the sprayer. Each pot was placed into perforated plastic bags with a zip closure. About 10 to 11 armyworm larvae were placed into the bag and the bags zipped closed. Test plants were maintained in a growth room at about 25° C. and about 20-40% relative humidity for 4 days, avoiding direct exposure to fluorescent light (24-hour photoperiod) to prevent trapping of heat inside the bags. Mortality and reduced feeding were assessed 4 days after treatment, compared to untreated control plants.

For assay [2], the system named is Silverleaf whitefly (Bemisia argentifolii) (adults). Nature of the assay: Example B.4: Action on silverleaf whitefly (Bemisia argentifolii) adults on sprayed cotton plants. The conditions noted are these: 72 h, 3 days after treatment, read-out: mortality in comparison with untreated controls. The procedure: The active compounds were formulated by a Tecan liquid handler in 100% cyclohexanone as a 10,000-ppm solution supplied in tubes. The 10,000-ppm solution was serially diluted in 100% cyclohexanone to make interim solutions. These served as stock solutions for which final dilutions were made by the Tecan in 50% acetone:50% water (v/v) into 5 or 10 ml glass vials. A nonionic surfactant (Kinetic®) was included in the solution at a volume of 0.01% (v/v). The vials were then inserted into an automated electrostatic sprayer equipped with an atomizing nozzle for application to plants/insects.
Cotton plants at the cotyledon stage (one plant per pot) were sprayed by an automated electrostatic plant sprayer equipped with an atomizing spray nozzle. The plants were dried in the sprayer fume hood and then removed from the sprayer. Each pot was placed into a plastic cup and about 10 to 12 whitefly adults (approximately 3-5 days old) were introduced. The insects were collected using an aspirator and a nontoxic Tygon® tubing connected to a barrier pipette tip. The tip, containing the collected insects, was then gently inserted into the soil containing the treated plant, allowing insects to crawl out of the tip to reach the foliage for feeding. Cups were covered with a reusable screened lid. […] Mortality was assessed 3 days after treatment, compared to untreated control plants.

Assay [3] concerns Orchid thrips (Dichromothrips corbetti). The assay can be described thus: Example B.2: Action on orchid thrips (Dichromothrips corbetti), floral-immersion technique. The settings on record: 72 hours after treatment, read-out: mortality in comparison with untreated controls. The method, then:
Dichromothrips corbetti adults used for bioassay were obtained from a colony maintained continuously under laboratory conditions. For testing purposes, the test compound is diluted in a 1:1 mixture of acetone:water (vol:vol), plus Kinetic® HV at a rate of 0.01% v/v.
Thrips potency of each compound was evaluated by using a floral-immersion technique. All petals of individual, intact orchid flowers were dipped into treatment solution and allowed to dryin Petri dishes. Treated petals were placed into individual re-sealable plastic along with about 20 adult thrips. All test arenas were held under continuous light and a temperature of about 28° C. for duration of the assay. After 3 days, the numbers of live thrips were counted on each petal. The percent mortality was recorded 72 hours after treatment.

Assay [4] has as its system tobacco budworm (Heliothis virescens). The assay can be described thus: Example B.5: Action on tobacco budworm (Heliothis virescens), egg and larval mortality on insect diet. The settings on record: 120 h, egg and larval mortality after 5 days, read-out: mortality in comparison with untreated controls. The procedure:
For evaluating control of tobacco budworm (Heliothis virescens) the test unit consisted of 96-well-microtiter plates containing an insect diet and 15-25 H. virescens eggs.
The compounds were formulated using a solution containing 75% v/v water and 25% v/v DMSO. Different concentrations of formulated compounds were sprayed onto the insect diet at 10 μl, using a custom-built micro atomizer, at two replications.
After application, microtiter plates were incubated at about 28±1C and about 80±5% relative humidity for 5 days. Egg and larval mortality were then visually assessed.

The subject of assay [5] is boll weevil (Anthonomus grandis). The assay can be described thus: Example B.3: Action on boll weevil (Anthonomus grandis), egg and larval mortality on insect diet. The conditions noted are these: 120 h, egg and larval mortality after 5 days, read-out: mortality in comparison with untreated controls. The procedure:
For evaluating control of boll weevil (Anthonomus grandis) the test unit consisted of 96-well-microtiter plates containing an insect diet and 5-10 A. grandis eggs.
The compounds were formulated using a solution containing 75% (v/v) water and 25% (v/v) DMSO. Different concentrations of formulated compounds were sprayed onto the insect diet at […], using a custom-built micro atomizer, at two replications.
After application, microtiter plates were incubated at about 25±1C and about 75±5% relative humidity for 5 days. Egg and larval mortality were then visually assessed.

In assay [6] the test system is yellow fever mosquito (Aedes aegypti). The assay can be described thus: whole plant or invertebrate. The conditions noted are these: 48 h, larval mortality after 2 days, read-out: mortality in comparison with untreated controls. The method, then:
For evaluating control of yellow fever mosquito (Aedes aegypti) the test unit consisted of 96-well-microtiter plates containing 200 μl of tap water per well and 5-15 freshly hatched A. aegypti larvae.
The active compounds or mixtures were formulated using a solution containing 75% (v/v) water and 25% (v/v) DMSO. Different concentrations of formulated compounds or mixtures were sprayed onto the insect diet at 2.5 μl, using a custom-built micro atomizer, at two replications.
For experimental mixtures in these tests identical volumes of both mixing partners at the desired concentrations respectively, were mixed together.
After application, microtiter plates were incubated at 28 #1° C., 80 #5% RH for 2 days. Larval mortality was then visually assessed.

The test system of assay [7] is Diamond back moth (Plutella xylostella). Nature of the assay: Example B.6: Action on diamond back moth (Plutella xylostella), cabbage leaf dip, 3rd instar larvae. The conditions noted are these: foliar, 72 hours after treatment, read-out: mortality in comparison with untreated controls. The method, then: The active compound is dissolved at the desired concentration in a mixture of 1:1 (v/v) distilled water: acetone. Surfactant (Kinetic® HV) is added at a rate of 0.01% (v/v). The test solution is prepared at the day of use.
Leaves of cabbage were dipped in test solution and air-dried. Treated leaves were placed in petri dishes lined with moist filter paper and inoculated with ten 3rd instar larvae. Mortality was recorded 72 hours after treatment. Feeding damages were also recorded using a scale of 0-100%.

For the compound `Cc1ccc(C(C)C)c(N2C(=O)CS/C2=N\C(=O)Nc2ccc(-c3nc(NC(=O)c4ccc(OC(F)(F)F)cc4)n(C)n3)cc2Cl)c1` [Example C-6, N-[5-[3-chloro-4-[[(Z)-[3-(2-isopropyl-5-methyl-phenyl)-4-oxo-thiazolidin-2-ylidene]carbamoyl]amino]phenyl]-2-methyl-1,2,4-triazol-3-yl]-4-(trifluoromethoxy)benzamide], the mortality at 300 ppm in assay [1], in assay [2], in assay [3] and in assay [7] was at least 75% each time. Also, the values for the mortality at 800 ppm in assay [4], in assay [5] and in assay [6] were at least 75%, at least 75% and at least 50%, respectively.

Take `Cc1ccc(C(C)C)c(NC(=S)NC(=O)Nc2ccc(-c3nn(C)c(NC(=O)c4ccc(C(F)(F)F)cc4)c3C)cc2)c1` [Example C-3, N-[5-[4-[(2-isopropyl-5-methyl-phenyl)carbamothioylcarbamoylamino]phenyl]-2,4-dimethyl-pyrazol-3-yl]-4-(trifluoromethyl)benzamide]: the mortality at 300 ppm in assay [1], in assay [3] and in assay [7] was at least 75% in each case. Further, the mortality at 800 ppm is at least 75% in assay [4], at least 75% in assay [5] and at least 50% in assay [6].
